Holding throughout (assay type): functional, cell-based
Assay [1] concerns the target T1, Taste receptor type 2 member 16 (Homo sapiens) (UniProt Q9NYV7).
T1 sequence (whole entry): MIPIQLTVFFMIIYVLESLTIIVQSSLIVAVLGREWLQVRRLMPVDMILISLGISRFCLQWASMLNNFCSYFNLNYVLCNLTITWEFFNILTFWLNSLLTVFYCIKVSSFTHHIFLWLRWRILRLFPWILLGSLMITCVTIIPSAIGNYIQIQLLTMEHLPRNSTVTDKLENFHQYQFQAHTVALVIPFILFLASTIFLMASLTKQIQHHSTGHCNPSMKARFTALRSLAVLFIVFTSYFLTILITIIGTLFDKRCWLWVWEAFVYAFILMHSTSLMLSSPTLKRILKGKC
Briefly: Activity at recombinant human N-terminal rat ST3 receptor-fused TAS2R16 expressed in HEK293T cells co-expressing Galpha16gust44 assessed as effect on D-salicin-induced intracellular calcium level at 100 uM by FLIPR assay.

Assay [2] concerns the target T2, Taste receptor type 2 member 10 (Homo sapiens) (UniProt Q9NYW0).
T2 sequence (whole entry): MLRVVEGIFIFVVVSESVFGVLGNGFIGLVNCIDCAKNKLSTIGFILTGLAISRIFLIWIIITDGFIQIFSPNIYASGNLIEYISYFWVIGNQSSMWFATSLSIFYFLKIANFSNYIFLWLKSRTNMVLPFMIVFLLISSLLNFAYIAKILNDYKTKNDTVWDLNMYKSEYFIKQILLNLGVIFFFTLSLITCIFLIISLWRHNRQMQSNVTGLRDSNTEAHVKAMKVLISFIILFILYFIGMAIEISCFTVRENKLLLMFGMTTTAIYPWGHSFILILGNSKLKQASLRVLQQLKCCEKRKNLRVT
The assay can be described thus: Activity at recombinant human N-terminal rat ST3 receptor-fused TAS2R10 expressed in HEK293T cells co-expressing Galpha16gust44 assessed as effect on strychnine-induced intracellular calcium level at 100 uM by FLIPR assay.

In assay [3] the target is T3, Taste receptor type 2 member 4 (Homo sapiens) (UniProt Q9NYW5).
T3 sequence (whole entry): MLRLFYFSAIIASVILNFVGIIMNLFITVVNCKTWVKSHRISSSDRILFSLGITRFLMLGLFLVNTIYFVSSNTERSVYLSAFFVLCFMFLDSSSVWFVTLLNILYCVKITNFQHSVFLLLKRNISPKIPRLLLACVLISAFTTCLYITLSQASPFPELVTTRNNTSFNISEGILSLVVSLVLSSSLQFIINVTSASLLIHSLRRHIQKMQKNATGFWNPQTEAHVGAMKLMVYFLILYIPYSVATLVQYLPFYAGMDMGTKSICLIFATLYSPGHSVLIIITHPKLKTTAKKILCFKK
Briefly: Activity at recombinant human N-terminal rat ST3 receptor-fused TAS2R4 expressed in HEK293T cells co-expressing Galpha16gust44 assessed as effect on colchicine-induced intracellular calcium level at 100 uM by FLIPR assay. On the technique in general: Calcium assays in cells follow changes in intracellular calcium, usually with a dye or a luminescent sensor.

Assay [4] addresses T4, Taste receptor type 2 member 14 (Homo sapiens) (UniProt Q9NYV8).
T4 sequence (whole entry): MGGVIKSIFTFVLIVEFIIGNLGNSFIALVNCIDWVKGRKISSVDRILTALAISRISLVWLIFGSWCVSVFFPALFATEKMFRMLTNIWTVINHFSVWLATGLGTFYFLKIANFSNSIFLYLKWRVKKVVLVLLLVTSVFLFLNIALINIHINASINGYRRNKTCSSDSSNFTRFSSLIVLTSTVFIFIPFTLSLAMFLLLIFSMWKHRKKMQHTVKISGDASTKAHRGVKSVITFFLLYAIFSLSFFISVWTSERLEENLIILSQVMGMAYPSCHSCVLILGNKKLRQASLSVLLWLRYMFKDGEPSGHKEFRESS
The assay can be described thus: Agonist activity at recombinant human N-terminal rat ST3 receptor-fused TAS2R14 expressed in HEK293T cells co-expressing Galpha16gust44 assessed as effect on intracellular calcium level at 100 uM by FLIPR assay.

Assay [5] deals with T5, Taste receptor type 2 member 13 (Homo sapiens) (UniProt Q9NYV9).
T5 sequence (whole entry): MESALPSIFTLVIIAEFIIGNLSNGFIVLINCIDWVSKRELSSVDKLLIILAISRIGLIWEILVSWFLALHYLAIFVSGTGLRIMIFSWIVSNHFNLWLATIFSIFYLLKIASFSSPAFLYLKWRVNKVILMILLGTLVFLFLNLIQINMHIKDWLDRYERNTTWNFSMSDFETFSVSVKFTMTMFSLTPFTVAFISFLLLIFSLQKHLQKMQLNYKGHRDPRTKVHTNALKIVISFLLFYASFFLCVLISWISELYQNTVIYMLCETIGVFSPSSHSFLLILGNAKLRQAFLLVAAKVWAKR
Briefly: Activity at recombinant human N-terminal rat ST3 receptor-fused TAS2R13 expressed in HEK293T cells co-expressing Galpha16gust44 assessed as effect on denatonium benzoate-induced intracellular calcium level at 100 uM by FLIPR assay.

Assay [6] addresses T6, Taste receptor type 2 member 9 (Homo sapiens) (UniProt Q9NYW1).
T6 sequence (whole entry): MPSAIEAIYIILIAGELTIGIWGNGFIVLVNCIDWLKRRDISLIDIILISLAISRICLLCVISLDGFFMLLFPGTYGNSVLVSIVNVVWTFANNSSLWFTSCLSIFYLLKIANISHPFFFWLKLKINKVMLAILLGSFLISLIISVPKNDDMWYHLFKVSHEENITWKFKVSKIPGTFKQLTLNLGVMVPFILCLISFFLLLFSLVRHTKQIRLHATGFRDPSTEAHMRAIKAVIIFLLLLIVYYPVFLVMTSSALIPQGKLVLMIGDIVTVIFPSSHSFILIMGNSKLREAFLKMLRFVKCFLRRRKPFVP
Briefly: Activity at recombinant human N-terminal rat ST3 receptor-fused TAS2R9 expressed in HEK293T cells co-expressing Galpha16gust44 assessed as effect on ofloxacin-induced intracellular calcium level at 100 uM by FLIPR assay.

The target in assay [7] is T7, Taste receptor type 2 member 46 (Homo sapiens) (UniProt P59540).
T7 sequence (whole entry): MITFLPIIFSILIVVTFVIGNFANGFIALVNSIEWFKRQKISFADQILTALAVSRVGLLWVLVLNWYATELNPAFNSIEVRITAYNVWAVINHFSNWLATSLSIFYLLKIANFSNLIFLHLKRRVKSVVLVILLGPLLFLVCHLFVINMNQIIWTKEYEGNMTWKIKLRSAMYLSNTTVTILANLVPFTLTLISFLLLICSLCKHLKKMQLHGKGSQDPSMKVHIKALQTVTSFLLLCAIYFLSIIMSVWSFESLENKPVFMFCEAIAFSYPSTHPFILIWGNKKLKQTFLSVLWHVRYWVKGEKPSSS
The assay can be described thus: Competitive antagonist activity at recombinant human N-terminal rat ST3 receptor-fused TAS2R46 expressed in HEK293T cells co-expressing Galpha16gust44 assessed as inhibition strychnine-induced intracellular calcium level by FLIPR assay.

Assay [8] addresses Taste receptor type 2 member 5 (Homo sapiens) (UniProt Q9NYW4). Briefly: Agonist activity at recombinant human N-terminal rat ST3 receptor-fused TAS2R5 expressed in HEK293T cells co-expressing Galpha16gust44 assessed as effect on intracellular calcium level at 100 uM by FLIPR assay.

The source made the active and inactive calls. No cut-off for these calls is given here.

Taste receptor type 2 member 5 (Homo sapiens), sequence (Q9NYW4 whole entry, the tested form may be a part): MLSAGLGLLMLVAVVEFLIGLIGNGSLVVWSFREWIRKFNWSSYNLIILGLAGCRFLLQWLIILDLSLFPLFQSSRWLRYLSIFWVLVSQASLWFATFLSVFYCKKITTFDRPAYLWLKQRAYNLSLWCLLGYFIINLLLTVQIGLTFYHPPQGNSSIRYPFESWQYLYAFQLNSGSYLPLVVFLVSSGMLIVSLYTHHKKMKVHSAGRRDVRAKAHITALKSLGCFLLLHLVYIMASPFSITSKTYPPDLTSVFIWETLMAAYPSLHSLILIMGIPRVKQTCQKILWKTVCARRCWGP

Take `C/C1=C\C[C@H](O)[C@@H](C)C[C@H]2OC(=O)[C@@H](C)C2CC1` (some centres undefined): the result in assay [1], in assay [2], in assay [3], in assay [5] and in assay [6] was inactive. Besides, the outcome in assay [4] was Active.
For the compound `C/C1=C\C[C@H](O)/C(C)=C/[C@H]2OC(=O)[C@@H](C)C2CC1` (some centres undefined), the result in assay [1], in assay [2], in assay [3], in assay [8], in assay [5] and in assay [6] was inactive. For the same compound, the inhibition entry in assay [7] is “Active”. The result in assay [4] was Active.
